Data from PubChem BioAssay (NCI).
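Five compound concentrations were applied to cells in 96-well plates for 48 hours; endpoints were derived by simple linear interpolation of the resulting dose-response curve. TGI: total growth inhibition.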

Experiments:
Assay in all cases: growth of human tumour cells (NCI), 48 h
[1] = tested on: SW-620 colon
[2] = tested on: NCI-H460 lung
[3] = tested on: A549 NSCLC
[4] = tested on: HOP-62 NSCLC
[5] = tested on: RXF 393 renal
[6] = tested on: NCI-H23 lung
[7] = tested on: ACHN renal
[8] = tested on: LOX IMVI melanoma
[9] = tested on: EKVX NSCLC
[10] = tested on: COLO 205 colon
[11] = tested on: NCI-H522 lung
[12] = tested on: OVCAR-4 ovarian
[13] = tested on: CAKI-1 renal
[14] = tested on: SK-OV-3 ovarian
[15] = tested on: KM12 colon
[16] = tested on: 786-0 renal
[17] = tested on: SR leukemia
[18] = tested on: A498 renal
[19] = tested on: MOLT-4 leukemia
[20] = tested on: CCRF-CEM leukemia
[21] = tested on: U251 CNS
[22] = tested on: NCI-H226 lung
[23] = tested on: OVCAR-5 ovarian
[24] = tested on: OVCAR-8 ovarian
[25] = tested on: PC-3 prostate
[26] = tested on: TK-10 renal
[27] = tested on: BT-549 breast
[28] = tested on: SF-268 CNS
[29] = tested on: HCT-15 colon
[30] = tested on: SN12C renal
[31] = tested on: MDA-MB-231 breast
[32] = tested on: SNB-75 CNS
[33] = tested on: HCT-116 colon
[34] = tested on: MCF7 breast
[35] = tested on: RPMI-8226 leukemia
[36] = tested on: SK-MEL-5 melanoma
[37] = tested on: IGROV1 ovarian
[38] = tested on: HCC-2998 colon
[39] = tested on: SF-295 CNS
[40] = tested on: HT29 colon
[41] = tested on: SF-539 CNS
[42] = tested on: SK-MEL-28 melanoma
[43] = tested on: MALME-3M melanoma
[44] = tested on: SK-MEL-2 melanoma
[45] = tested on: HS 578T breast
[46] = tested on: UACC-62 melanoma
[47] = tested on: NCI/ADR-RES ovarian
[48] = tested on: OVCAR-3 ovarian
[49] = tested on: T-47D breast
[50] = tested on: DU-145 prostate
[51] = tested on: M14 melanoma
[52] = tested on: SNB-19 CNS
[53] = tested on: UO-31 renal
[54] = tested on: UACC-257 melanoma
[55] = tested on: MDA-N
[56] = tested on: HL-60(TB) leukemia
[57] = tested on: K-562 leukemia
[58] = tested on: MDA-MB-435

CCC/C(Cl)=N\OC(=O)Nc1cccc(C(F)(F)F)c1 gave a TGI [1] of 8.66 µM, a TGI [2] of 35.8 µM and a TGI [3] of 36.1 µM. The TGI [4] was over 100 µM, the TGI [5] was 33.8 µM and the TGI [6] was 41.1 µM. It also gave a TGI [7] of 29.8 µM, a TGI [8] of 19.7 µM and a TGI [9] of 31.4 µM. The TGI [10] was 8.51 µM, the TGI [11] was 3.42 µM and the TGI [12] was 38.5 µM. For the same compound, the TGI [13] was 33.1 µM, the TGI [14] was 18 µM and the TGI [15] was 33.3 µM. It also gave a TGI [16] of 29.5 µM, a TGI [17] of 5.93 µM and a TGI [18] of 32 µM. For the same compound, the TGI [19] was 13.6 µM, the TGI [20] was 5.67 µM and the TGI [21] was 34.4 µM. It also gave a TGI [22] of 37.8 µM, a TGI [23] of 46.1 µM and a TGI [24] of 32.3 µM. For the same compound, the TGI [25] was 31.6 µM, the TGI [26] was 28.8 µM and the TGI [27] was 24.7 µM. The TGI [28] was 67.8 µM, the TGI [29] was 18.4 µM and the TGI [30] was 29.7 µM. The TGI [31] was 33.8 µM, the TGI [32] was 24.3 µM and the TGI [33] was 34.9 µM. The TGI [34] was 30.1 µM, the TGI [35] was 25.8 µM and the TGI [36] was 28.9 µM. For the same compound, the TGI [37] was 32.4 µM, the TGI [38] was 33.4 µM and the TGI [39] was 19.5 µM. It also gave a TGI [40] of 50.3 µM, a TGI [41] of 35.1 µM and a TGI [42] of 37.6 µM. The TGI [43] was 26.4 µM, the TGI [44] was 31.4 µM and the TGI [45] was 70.2 µM. It also gave a TGI [46] of 55.3 µM, a TGI [47] of over 59.4 µM and a TGI [48] of 40.2 µM. The TGI [49] was 55.3 µM, the TGI [50] was 17.8 µM and the TGI [51] was 32.7 µM. For the same compound, the TGI [52] was over 100 µM, the TGI [53] was 33.9 µM and the TGI [54] was 31.6 µM. The TGI [55] was 31.9 µM.

CC(C)OP(=O)(OC(C)C)c1ccc2c(c1)OCCOCCOCCOCCO2 showed a TGI [1] of over 100 µM, a TGI [2] of over 100 µM and a TGI [3] of over 100 µM. The TGI [4] was over 100 µM, the TGI [6] was over 100 µM and the TGI [7] was over 100 µM. The TGI [8] was over 100 µM, the TGI [9] was over 100 µM and the TGI [10] was over 100 µM. It also gave a TGI [11] of over 100 µM, a TGI [13] of over 100 µM and a TGI [14] of over 100 µM. It also gave a TGI [15] of over 100 µM, a TGI [16] of over 100 µM and a TGI [17] of over 100 µM. For the same compound, the TGI [18] was over 100 µM, the TGI [19] was over 100 µM and the TGI [20] was over 100 µM. The TGI [22] was over 100 µM, the TGI [56] was over 100 µM and the TGI [24] was over 100 µM. It also gave a TGI [25] of over 100 µM, a TGI [26] of over 100 µM and a TGI [27] of over 100 µM. It also gave a TGI [28] of over 100 µM, a TGI [29] of over 100 µM and a TGI [30] of over 100 µM. It also gave a TGI [31] of over 100 µM, a TGI [32] of over 100 µM and a TGI [33] of over 100 µM. For the same compound, the TGI [34] was over 100 µM, the TGI [35] was over 100 µM and the TGI [36] was over 100 µM. The TGI [37] was over 100 µM, the TGI [38] was over 100 µM and the TGI [39] was over 100 µM. For the same compound, the TGI [40] was over 100 µM, the TGI [41] was over 100 µM and the TGI [42] was over 100 µM. It also gave a TGI [57] of over 100 µM, a TGI [58] of over 100 µM and a TGI [43] of over 100 µM. For the same compound, the TGI [45] was over 100 µM, the TGI [46] was over 100 µM and the TGI [49] was over 100 µM. For the same compound, the TGI [50] was over 100 µM, the TGI [51] was over 100 µM and the TGI [52] was over 100 µM. The TGI [53] was over 100 µM, the TGI [54] was over 100 µM and the TGI [55] was over 100 µM.
